Read-outs that look alike come from different tables or passages of the source.
Tests used:
[1] = target: T1, HSV-1 ribonucleotide reductase (Human herpesvirus 1, UniProt P08543); assay: Inhibition of Herpes Simplex Virus (HSV-1) ribonucleotide reductase; type: biochemical; conditions: partially purified enzyme from HSV-1 strain F infected BHK-21/C13 cells; mean of four assays; read-out: IC50 (concentration producing 50% of the maximal inhibition of enzyme activity)
T1 construct: HSV-1 ribonucleotide reductase (partially purified) was obtained from quiescent BHK-21/Cl13 cells infected with strain F HSV-1 virus; made in house; host or cells: quiescent BHK-21/C13 hamster cells infected with HSV-1 strain F; native viral enzyme, partially purified
T1 sequence (P08543 whole entry): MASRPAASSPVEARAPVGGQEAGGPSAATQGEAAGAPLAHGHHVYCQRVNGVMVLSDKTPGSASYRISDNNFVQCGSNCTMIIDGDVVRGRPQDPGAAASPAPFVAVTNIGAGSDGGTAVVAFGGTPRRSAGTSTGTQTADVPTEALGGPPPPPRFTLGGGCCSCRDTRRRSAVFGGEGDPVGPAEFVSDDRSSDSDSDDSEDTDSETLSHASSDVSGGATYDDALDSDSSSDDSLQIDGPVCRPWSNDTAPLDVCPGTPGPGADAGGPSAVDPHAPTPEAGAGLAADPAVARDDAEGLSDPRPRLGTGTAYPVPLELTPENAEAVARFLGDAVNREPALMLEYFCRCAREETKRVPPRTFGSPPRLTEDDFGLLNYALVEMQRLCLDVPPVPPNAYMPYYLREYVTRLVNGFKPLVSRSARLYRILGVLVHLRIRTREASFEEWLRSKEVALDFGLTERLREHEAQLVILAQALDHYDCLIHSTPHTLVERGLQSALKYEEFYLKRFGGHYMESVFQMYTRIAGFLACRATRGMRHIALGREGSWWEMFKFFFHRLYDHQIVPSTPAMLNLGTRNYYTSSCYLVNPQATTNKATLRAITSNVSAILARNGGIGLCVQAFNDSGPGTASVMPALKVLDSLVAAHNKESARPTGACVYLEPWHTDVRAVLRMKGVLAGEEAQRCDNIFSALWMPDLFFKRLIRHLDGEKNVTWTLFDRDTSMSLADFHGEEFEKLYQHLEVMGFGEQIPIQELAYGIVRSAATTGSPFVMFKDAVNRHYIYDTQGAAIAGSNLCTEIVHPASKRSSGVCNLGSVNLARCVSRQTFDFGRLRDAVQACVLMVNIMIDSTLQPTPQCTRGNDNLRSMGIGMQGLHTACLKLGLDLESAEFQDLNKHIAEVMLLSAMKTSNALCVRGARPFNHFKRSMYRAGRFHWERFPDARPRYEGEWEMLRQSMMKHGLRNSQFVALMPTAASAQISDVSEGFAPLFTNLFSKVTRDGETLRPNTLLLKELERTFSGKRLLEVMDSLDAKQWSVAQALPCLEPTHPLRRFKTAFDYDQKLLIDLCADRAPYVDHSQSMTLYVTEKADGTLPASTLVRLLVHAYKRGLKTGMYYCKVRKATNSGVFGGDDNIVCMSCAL
Excerpt: HSV-1 ribonucleotide reductase (partially purified) was obtained from quiescent BHK-21/Cl13 cells infected with strain F HSV-1 virus at 10 plaque forming units/cell as described by E. A. Cohen et al., J. Gen. Virol., 66, 733 (1985).
The assay described by P. Gaudreau et al., J. Biol, Chem., 262, 12413 (1987), is used to evaluate the capability of the compounds of formula 1 to inhibit HSV-1 ribonucleotide reductase activity. The assay results are expressed as the concentration of the compound producing 50% of the maximal inhibition (IC50) of enzyme activity. The number of units of the enzyme preparation used in each assay was constant, based on the specific activity of the enzyme preparation. The results are relative to the activity obtained in control experiments without the test compound and represent the means of four assays that varied less than 10% with each other.

HSV-1 strain F = assay: Inhibition of HSV-1 replication in cell culture (BHK-21 cells, ELISA of glycoprotein C), strain F; type: cell-based, Herpes simplex virus type 1; conditions: 24 hours incubation, read-out: EC50 (inhibition of viral replication)
Description: BHK-21 cells clone 13 (ATCC CCL10) were incubated for two days in 850 cm^2 roller bottles (2×10^7 cells/bottle) with alpha-MEM medium (Gibco Canada Inc., Burlington, Ontario, Canada) supplemented with 8% (v/v) fetal bovine serum (FBS, Gibco Canada, Inc.). The cells were trypsinized and then transferred to fresh media in a 96-well microtiter plate at a density of 50,000 cells per well in 100 μL. The cells were incubated at 37° for a period of 6 hours to allow adhesion to the plate. The cells then were washed once with 100 μL of alpha-MEM supplemented with 0.5% FBS (v/v) and incubated with 100 μL of the same media for 3 days. After this period of serum starvation, the low serum media was removed. The cells were washed once with 100 μL BBMT and incubated for two hours in 100 μL of the same media. {Note: BBMT medium is described by P. Brazeau et al., Proc. Natl. Acad. Sci. U.S.A., 79, 7909 (1980).} Thereafter, the cells were infected with HSV-1 strain F or KOS (multiplicity of infection =0.05 PFU/cell) in 50 μL of BBMT medium. Following one hour of virus absorption at 37°, the media was removed and the cells were washed with BBMT (2×100 μL). The cells were incubated with or without 100 μL of the appropriate concentration of test reagent in BBMT medium. After 24 hours of incubation at 37°, the extent of viral replication was determined by an ELISA assay; for instance, the following assay that detects the late glycoprotein C of HSV-1. Cells were fixed in a microtiter plate with 100 μL of 0.063% glutaraldehyde in phosphate buffered saline for 30 minutes at room temperature. The microtiter plate was then washed once with casein blocking solution and blocked with 200 μL of the same solution for one hour at room temperature. […] Color development was monitored at 450 nm using a microplate spectrophotometer. […] The following TABLE II provides examples of the results obtained when compounds of formula 1 were evaluated according to the cell culture assay (HSV-1 strain F) of this example.

HSV-1 KOS strain = assay: Synergistic studies of acyclovir and the title compound of example 9 in the cell culture assay, HSV-1 KOS strain; type: cell-based, Herpes simplex virus type 1; conditions: for EC50: MOI = 0.05 PFU/cell
Description: BHK-21 cells clone 13 (ATCC CCL10) were incubated for two days in 850 cm^2 roller bottles (2×10^7 cells/bottle) with alpha-MEM medium (Gibco Canada Inc., Burlington, Ontario, Canada) supplemented with 8% (v/v) fetal bovine serum (FBS, Gibco Canada, Inc.). The cells were trypsinized and then transferred to fresh media in a 96-well microtiter plate at a density of 50,000 cells per well in 100 μL. The cells were incubated at 37° for a period of 6 hours to allow adhesion to the plate. The cells then were washed once with 100 μL of alpha-MEM supplemented with 0.5% FBS (v/v) and incubated with 100 μL of the same media for 3 days. After this period of serum starvation, the low serum media was removed. The cells were washed once with 100 μL BBMT and incubated for two hours in 100 μL of the same media. {Note: BBMT medium is described by P. Brazeau et al., Proc. Natl. Acad. Sci. U.S.A., 79, 7909 (1980).}
Thereafter, the cells were infected with HSV-1 strain F or KOS (multiplicity of infection =0.05 PFU/cell) in 50 μL of BBMT medium. Following one hour of virus absorption at 37°, the media was removed and the cells were washed with BBMT (2×100 μL). The cells were incubated with or without 100 μL of the appropriate concentration of test reagent in BBMT medium. After 24 hours of incubation at 37°, the extent of viral replication was determined by an ELISA assay; for instance, the following assay that detects the late glycoprotein C of HSV-1.
Cells were fixed in a microtiter plate with 100 μL of 0.063% glutaraldehyde in phosphate buffered saline for 30 minutes at room temperature. The microtiter plate was then washed once with casein blocking solution and blocked with 200 μL of the same solution for one hour at room temperature. Thereafter, 100 μL of mAB Cll recognizing HSV-1 gC envelope protein [see E. Trybala et al., Journal of General Virology, 75, 743 (1994)] was added to each well for two hours at room temperature. The plate was washed three times with phosphate buffered saline containing 0.05% polyoxyethylene (20) sorbitan monooleate. The cells were and incubated with 100 μL of sheep anti-mouse IgC horseradish peroxidase for one hour at room temperature in the dark.
The plate then was washed three times with 200 μL of the above-noted phosphate buffer saline preparation, and then once with 0.1M sodium citrate (pH 4.5). Thereafter, 100 μL of orthophenylenediamine dihydrochloride (OPD, Gibco, Canada Inc.) was added to each well. The plate was agitated on a microplate shaker for 30 minutes in the dark. Color development was monitored at 450 nm using a microplate spectrophotometer.
SAS was used to calculate % inhibition of viral replication and to generate ECl50 values.
The results are illustrated in accompanying FIG. 1.
More explicitly with reference to the isobole method, this method requires experimental data generated for the two test compounds, each alone and in different combinations. In this way selected concentrations of the title compound of example 9 (EC5, EC10, EC20 and EC30) were added to a given concentration of ACV and the EC50 's were evaluated as described previously. For these experiments, the EC5, EC10, EC20 and EC30 of the title compound of example 9 (i.e. the test compound) were derived from inhibition curves previously obtained. An isobologram is generated using for the Y axis a value termed FEC60 (ACV) (which is the ratio of the concentration of ACV required to inhibit HSV replication by 60% in the presence of a fixed concentration of the test compound to the concentration required in the absence of the test compound). This is plotted against a term representing the ratio of the fixed concentration of the test compound to the concentration of the test compound that reduced inhibition of HSV replication in the absence of ACV (the X axis).
The following TABLE III is illustrative of results obtained when combinations of ACV and the title compound of example 9 (TC) were evaluated for their antiherpes activity against HSV-1. […]

Row | Molecule | IC50 [1] [nM] | EC50 (HSV-1 strain F) [nM] | EC50 (HSV-1 KOS strain; ACV + 0.05 μM of TC, read-out: EC50 of ACV in combination) [nM] | EC50 (HSV-1 KOS strain; ACV + 0.1 μM of TC, read-out: EC50 of ACV in combination) [nM] | EC50 (HSV-1 KOS strain; ACV + 0.15 μM of TC, read-out: EC50 of ACV in combination) [nM] | EC50 (HSV-1 KOS strain; ACV + 0.2 μM of TC, read-out: EC50 of ACV in combination) [nM] | EC50 (HSV-1 KOS strain; ACV + 0.3 μM of TC, read-out: EC50 of ACV in combination) [nM] | EC50 (HSV-1 KOS strain; ACV + 0.4 μM of TC, read-out: EC50 of ACV in combination) [nM] | EC50 (HSV-1 KOS strain; compound alone, read-out: EC50) [nM] | Effect of combining with acyclovir on the EC50 of acyclovir (synergy, isobole method) (HSV-1 KOS strain; increasing concentrations of the title compound of example 9)
1 | (3-cyclohexyl-2 (R), 3 (R)-dimethyl-1-oxopropyl)-(N-Me) Val-Tbg-CH2 --(R)--CH (CH2 C(O) CMe3)C(O)-Asp (cyPn)-NH--(R)--CH (Et) CMe3 [R^1 and R^2 =Me] | 191 | 200 |  |  |  |  |  |  |  | 
2 | Nc1nc2c(ncn2COCCO)c(=O)[nH]1 [ACV, acyclovir] |  |  | 6300 | 3200 | 1790 | 1790 | 1000 | 500 | 6950 | 
3 | {3-cyclohexyl-2(S)-(1-methylethyl)-1-oxopropyl}-(N-Me) Val-Tbg-CH2 --(R)--CH(CH2 C(O)CMe3)C(O)-Asp(cypn)-NH--(R)--CH (Et)CMe3 [R^1 =H and R^2 =CHMe2] | 123 | 200 |  |  |  |  |  |  |  | 
4 | CC[C@@H](NC(=O)[C@@H](NC(=O)[C@@H](CC(=O)[C@@H](NC(=O)[C@H](C(C)C)N(C)C(=O)[C@H](C)CC1CCCCC1)C(C)(C)C)CC(=O)C(C)(C)C)C1(C(=O)O)CCCC1)C(C)(C)C [R^1 =H and R^2 =Me, (3-Cyclohexyl-2(R)-methyl-1-oxopropyl)-(N--Me) Val-Tbg-CH2 --(R)--CH(CH2 C(O)CMe3)--C (O)-Asp(cyPn)-NH--(R)--CH(Et)CMe3] | 147 | 400 |  |  |  |  |  |  | 473 | proportional lowering of the EC50 of acyclovir

From US5672586A, “Herpes ribonucleotide reductase inhibitors” (Bio-Mega/Boehringer Ingelheim Research, Inc., priority 1995, dated 1997)
